“Also recorded” adds a separate entry of the source.
Columns and labels:
H460 tumors = experiment: Tumor volume assessment, H460; type: in vivo, mouse; conditions: irradiation 3 Gy x2 + cisplatin 0.08 mg days 1-4
Description: H460 cell line forms tumor in nude mice. […] Twenty mice bearing H460 tumors with a range of 10-13 mm of diameter on their right hind limbs were divided into four groups (five mice per group). The first group received no treatment as the control group. The second group received radiation therapy (3 Gy×2 fraction) on days 1 and 3. The third group received radiation as […] and 0.08 mg/100 μl of cisplatin in PBS by tail vein injection after irradiation on days 1, 2, 3 and 4. The forth group received radiation as […] and 0.5 mg of nanomag beads-10 μg of WGA-0.08 mg of cisplatin cocktail in 100 μl PBS by tail vein injection after irradiation on days 1, 2, 3 and 4 with 15 minutes of magnetic force field after each time injection. Tumors volumes were measured 3 times weekly using skim calipers as described previously (see […]., et al., Nat. Med. 1:786-791 (1995); Hanson, et al., Radiation Research 142:281-287 (1995)) starting on day 1 and ending on the eighth measurement, or when the tumor volume reached 5 times that of the beginning volumes. Data was calculated as the percentage of original (day 1) tumor volume and graphed as fractional tumor volume+/-standard deviation (SD) for each treatment group. […]

GL-261 tumors = experiment: Tumor volume assessment, GL-261; type: in vivo, mouse; conditions: group 3: cisplatin 0.08 mg tail vein days 1-4, no irradiation
Description: H460 cell line forms tumor in nude mice. […] Forty mice bearing GI-261 tumors on their right hind limbs were divided eight groups (five mice per group). An equal number of large and intermediate size (11-15 mm) tumors were present in each group. The first group received no treatment as the control group. The second group received radiation therapy (3 Gy×2 fractions) on days 1 and 3. Irradiated mice were immobilized in […] chambers and the entire body was shielded with lead, except for tumor bearing hind limb. The third group received 0.08 mg/100 μl of cisplatin (Sigma) in PBS by tail vein injection on days 1, 2, 3 and 4. The forth group received 0.5 mg of nanomag beads-10 μg of WGA-0.08 mg cisplatin cocktail in 100 μl PBS by tail vein injection on days 1, 2, 3 and 4. The fifth group received irradiation of 3 Gy on days 1 and 3 and the same treatments as group 3 after irradiation on days 1, 2, 3 and 4. […] Tumors volumes were measured 3 times weekly using skim calipers as described previously (see […]., et al., Nat. Med. 1:786-791 (1995); Hanson, et al., Radiation Research 142:281-287 (1995)) starting on day 1 and ending on the eighth measurement, or when the tumor volume reached 5 times that of the beginning volumes. Data was calculated as the percentage of original (day 1) tumor volume and graphed as fractional tumor volume+/-standard deviation (SD) for each treatment group. […]

[1] = system: inflamed irradiated vasculature of LLC tumor; experiment: WGA-FITC binding in LLC tumor vascular window model; type: in vivo, mouse; conditions: LLC window irradiated 2.5 Gy vs 0 Gy; 100 μl WGA-FITC tail vein; pictures 60 min after injection
[2] = system: endothelial cells of tumors; experiment: Electron microscopy of WGA binding; type: in vivo

Row | Compound | delay of tumor growth (H460 tumors) | tumor growth delay (GL-261 tumors) | WGA-FITC binding to tumor vasculature [1] | location of WGA binding [2]
1 | N.N.[Cl][Pt][Cl] [cisplatin] | 11 days | 3 to 4 days |  | 
2 | wheat germ agglutinin [WGA] |  |  | efficiently and specifically bind; also recorded: much greater binding ability | most WGA binding was located at endothelial intercellular gaps

Source: patent US20030219785A1, “Targeted drug delivery methods” (Vanderbilt University, priority 2002, published 2003)
